Measurements taken from publication PMC11719724, “Antimicrobial Peptides from Porcine Blood Cruor Hydrolysates as a Promising Source of Antifungal Activity” (Foods, 2024).
Where no end group is shown, it is not given here.

Experiments:
[1] = system: Rhodotorula mucilaginosa 27173; assay type: cell-based; details: Figure 1 pictures A,B; peptides 2.5 mM, natamycin 50 µg/mL, 80 µL per well; 25 °C, 48 h
Experimental: (§1) The sixteen peptides were initially tested using the agar well diffusion method against the indicator strains E. coli, L. ivanovii, R. mucilaginosa, and Paecilomyces spp., as previously described in [22]. To perform this procedure, 25 µL of the prepared culture suspension (adjusted to 10^6 CFU/mL for bacteria and yeasts and 10^5 CFU/mL for molds) was diluted in 25 mL of Tryptic Soy Broth (TSB) (for bacterial strains) or Potato Dextrose Broth (PDB) (for fungal strains) supplemented with 0.75% agar and poured into a Petri dish (90 mm diameter) until dried. The culture media of the suspension was prepared using TSB for bacterial cultures and peptone water (10% w/v) supplemented with 0.1% Tween 80 (w/w) for fungal cultures as it enhances spore dispersion. Subsequent to the drying process, wells were formed using a sterile 5 mL pipette. A volume of 80 µL of each peptide at a concentration of 2.5 mM was added to each well. Ampicillin (MilliporeSigma Canada Ltd., Oakville, ON, Canada), at a concentration of 256 µg/mL and natamycin (MilliporeSigma Canada Ltd., Oakville, ON, Canada) at 50 µg/mL, were used as positive controls for bacterial and fungal tests, respectively, as they are wide-spectrum antimicrobials. The solvent of the peptides was included as negative control in all experiments. […] Thereafter, inhibition halos were measured, and images were captured using a Biorad Chemidoc camera.

[2] = system: Paecilomyces spp. 5332-9a; assay type: cell-based; details: Figure 1 pictures C,D; peptides 2.5 mM, natamycin 50 µg/mL, 80 µL per well; 25 °C, 48 h
Experimental: as §1

[3] = system: Rhodotorula mucilaginosa 27173; assay type: cell-based; details: 48 h
Experimental: (§2) A microtitration assay was conducted to determine the minimum inhibitory concentration (MIC) of the peptides against the collection of indicator microorganisms. The growth medium used for the isolated bacterial and fungal strains was TSB and PDB, respectively. In brief, 175 µL of the culture medium was added to the wells of column 1 (negative growth control) and 125 µL to the wells of columns 2–12. Subsequently, 125 µL of each peptide (stock concentration of 2.5 mM), positive control (stock concentration of 256 µg/mL for ampicillin in bacterial tests and 50 µg/mL for natamycin in fungal tests) and negative control (10% DMSO in H2O (v/v)) were added to the wells in column 3 and mixed by pipetting up and down 10 times. A total of 125 µL from column 3 was removed and transferred to column 4, where serial dilutions were performed until the final dilution reached column 12. The final volume was then discarded. […] Subsequently, 50 µL of the indicator strain suspension (at a concentration of 10^5 CFU/mL for yeasts and bacteria and 10^4 CFU/mL for molds) was introduced to all the wells, except for column 1. The culture medium used for culture suspension was identical to that employed in the agar well diffusion method. The microplate was incubated for 24 h at 37 °C for bacterial isolates and for 48 h at 25 °C for fungal isolates.
(§3) The minimal bactericidal/fungicidal concentration (MBC/MFC) was calculated by transferring 10 µL of the wells where no growth could be detected to agar plates (TSA for bacterial isolates and Dichloran Rose Bengal Chloramphenicol Agar (DBRC)) (BD Difco Laboratories, Sparks, MD, USA). After incubation (24 h, 37 °C for bacteria and 48 h, 25 °C, for fungi), the peptide concentration with which no growth was observed, was considered to be the MBC/MFC. The MBC/MIC and MFC/MIC ratios were calculated in order to ascertain the effect of the peptides. A ratio of ≤4 is indicative of bactericidal/fungicidal efficacy, whereas a ratio of >4 indicates bacteriostatic/fungistatic activity.

Mucor racemosus LMA-722 = assay type: cell-based; details: 48 h
Experimental: as §2, §3

[4] = system: Penicillium chrysogenum LMA-212; assay type: cell-based; details: 48 h
Experimental: as §2, §3

[5] = system: Paecilomyces spp. 5332-9a; assay type: cell-based; details: 48 h
Experimental: as §2, §3

Eurotium rubrum 3071.14a = assay type: cell-based; details: 48 h
Experimental: as §2, §3

[6] = system: Debaryomyces hansenii LL11042; assay type: cell-based; details: 48 h
Experimental: as §2, §3

P. commune 27163 = assay type: cell-based, Penicillium commune; details: 48 h
Experimental: (§4) A microtitration assay was conducted to determine the minimum inhibitory concentration (MIC) of the peptides against the collection of indicator microorganisms. The growth medium used for the isolated bacterial and fungal strains was TSB and PDB, respectively. In brief, 175 µL of the culture medium was added to the wells of column 1 (negative growth control) and 125 µL to the wells of columns 2–12. Subsequently, 125 µL of each peptide (stock concentration of 2.5 mM), positive control (stock concentration of 256 µg/mL for ampicillin in bacterial tests and 50 µg/mL for natamycin in fungal tests) and negative control (10% DMSO in H2O (v/v)) were added to the wells in column 3 and mixed by pipetting up and down 10 times. A total of 125 µL from column 3 was removed and transferred to column 4, where serial dilutions were performed until the final dilution reached column 12. The final volume was then discarded. […]
(§5) The minimal bactericidal/fungicidal concentration (MBC/MFC) was calculated by transferring 10 µL of the wells where no growth could be detected to agar plates (TSA for bacterial isolates and Dichloran Rose Bengal Chloramphenicol Agar (DBRC)) (BD Difco Laboratories, Sparks, MD, USA). […] The MBC/MIC and MFC/MIC ratios were calculated in order to ascertain the effect of the peptides. […]

C. guilliermondii 27168 = assay type: cell-based, Candida guilliermondii; details: 48 h
Experimental: as §4, §5

A. versicolor LMA-370 = assay type: cell-based, Aspergillus versicolor; details: 48 h
Experimental: as §2, §3

Row | Compound | MFC, Activity Against R. mucilaginosa [3] [µM] | MIC, Activity Against R. mucilaginosa [3] [µM] | MIC, Penicillium chrysogenum [4] [µM] | MFC, Activity Against Paecilomyces spp. [5] [µM] | MIC, Activity Against Paecilomyces spp. [5] [µM] | MIC, Eurotium rubrum (Eurotium rubrum 3071.14a) [µM] | MIC, Debaryomyces hansenii [6] [µM] | MIC, Aspergillus versicolor (A. versicolor LMA-370) [µM] | further results
1 | C[C@@H]1C/C=C/C=C/C=C/C=C/[C@H](O[C@@H]2O[C@H](C)[C@@H](O)[C@H](N)[C@@H]2O)C[C@@H]2O[C@](O)(C[C@@H](O)C[C@H]3O[C@@H]3/C=C/C(=O)O1)C[C@H](O)[C@H]2C(=O)O [Natamycin, natamycin] |  |  |  |  |  |  |  |  | inhibition halo (qualitative) [1]: Clear inhibition halos; inhibition halo (qualitative) [2]: Clear inhibition halos
2 | FQKVVAGVANALAHKYH [Pep5] | 78 ± 0 | 39 ± 0 | 312 ± 0 | 9 ± 0 | 9 ± 0 | 39 ± 0 | 156 ± 0 | 39 ± 0 | MFC, Mucor racemosus (Mucor racemosus LMA-722): 312 ± 0 µM; MIC, Mucor racemosus (Mucor racemosus LMA-722): 312 ± 0 µM; MFC, Eurotium rubrum (Eurotium rubrum 3071.14a): 78 ± 0 µM; MFC, Debaryomyces hansenii [6]: 156 ± 0 µM; MFC, Penicillium commune (P. commune 27163): 312 ± 0 µM; MIC, Penicillium commune (P. commune 27163): 312 ± 0 µM; MFC, Candida guilliermondii (C. guilliermondii 27168): 625 ± 0 µM; MIC, Candida guilliermondii (C. guilliermondii 27168): 312 ± 0 µM; MFC, Aspergillus versicolor (A. versicolor LMA-370): 78 ± 0 µM
3 | FRLLGNVIVVV [Pep4] |  | 375 | 156 ± 0 | 625 ± 0 | 625 ± 0 | 312 ± 0 | 312 ± 0 | 312 ± 0 | 
4 | LAHKYH [Pep15] | 1250 ± 0 | 1250 ± 0 |  |  | 1250 ± 0 |  |  |  | 
5 | NALAHKYH [Pep3] | 625 ± 0 | 625 ± 0 |  | 1250 ± 0 | 625 ± 0 |  |  |  | 
6 | QKVVAGVANALAHKYH [Pep14] | 78 ± 0 | 78 ± 0 |  | 78 ± 0 | 78 ± 0 |  |  |  | 
